{
  "source": "patent US4061862A",
  "about": "“Derivatives of 7-(cyclized)phenylglycyl-3-triazolo-thio methyl cephalosporin” (priority 1976, dated 1977)",
  "key": {"Pr. mirabilis A9900": {"tested_on": "Pr. mirabilis A9900", "experiment": "Antibiotic spectrum in nutrient broth, MIC", "assay_type": "cell-based", "settings": "Proteus mirabilis, 10^-4 dilution, BL-S1052 adjusted for 97.5% content of BL-S640", "excerpt": "(§1) Antibiotic Spectrum in Nutrient Broth\n(§2) **Dilution of overnight broth culture.\n(§3) ^(1) Adjusted for 97.5% content of BL-S640. In other words, the\n(§4) numerical values are lowered, i.e. improved. This adjustment was also mad\n(§5) in the tests reported below or in the alternative, a larger weight was\n(§6) used to provide equivalent dosage."}, "Ent. cloacae A9657": {"tested_on": "Ent. cloacae A9657", "experiment": "Antibiotic spectrum in nutrient broth, MIC", "assay_type": "cell-based", "settings": "Enterobacter cloacae, 10^-4 dilution, BL-S1052 adjusted for 97.5% content of BL-S640", "excerpt": "as §1, §2, §3, §4, §5, §6"}, "Ser. marcescens A20019": {"tested_on": "Ser. marcescens A20019", "experiment": "Antibiotic spectrum in nutrient broth, MIC", "assay_type": "cell-based", "settings": "Serratia marcescens, 10^-4 dilution, BL-S1052 adjusted for 97.5% content of BL-S640", "excerpt": "as §1, §2, §3, §4, §5, §6"}, "E. coli A9675": {"tested_on": "E. coli A9675", "experiment": "Antibiotic spectrum in nutrient broth, MIC", "assay_type": "cell-based", "settings": "Escherichia coli, 10^-4 dilution, BL-S1052 adjusted for 97.5% content of BL-S640", "excerpt": "as §1, §2, §3, §4, §5, §6"}, "S. aureus Smith A9537": {"tested_on": "S. aureus Smith A9537", "experiment": "Antibiotic spectrum in nutrient broth, MIC", "assay_type": "cell-based", "settings": "Staphylococcus aureus, BL-S1052 adjusted for 97.5% content of BL-S640", "excerpt": "as §1, §2, §3, §4, §5, §6"}, "K. pneumoniae A15130": {"tested_on": "K. pneumoniae A15130", "experiment": "Antibiotic spectrum in nutrient broth, MIC", "assay_type": "cell-based", "settings": "Klebsiella pneumoniae, 10^-4 dilution, BL-S1052 adjusted for 97.5% content of BL-S640", "excerpt": "as §1, §2, §3, §4, §5, §6"}, "Ps. Aeruginosa A9843A": {"tested_on": "Ps. Aeruginosa A9843A", "experiment": "Antibiotic spectrum in nutrient broth, MIC", "assay_type": "cell-based", "settings": "Pseudomonas aeruginosa", "excerpt": "as §1, §2, §3, §4, §5, §6"}, "Sal. enteritidis A9531": {"tested_on": "Sal. enteritidis A9531", "experiment": "Antibiotic spectrum in nutrient broth, MIC", "assay_type": "cell-based", "settings": "Salmonella enterica, 10^-4 dilution, BL-S1052 adjusted for 97.5% content of BL-S640", "excerpt": "as §1, §2, §3, §4, §5, §6"}, "Ent. cloacae A9656": {"tested_on": "Ent. cloacae A9656", "experiment": "Antibiotic spectrum in nutrient broth, MIC", "assay_type": "cell-based", "settings": "Enterobacter cloacae, 10^-4 dilution, BL-S1052 adjusted for 97.5% content of BL-S640", "excerpt": "as §1, §2, §3, §4, §5, §6"}, "K. pneumoniae A9977": {"tested_on": "K. pneumoniae A9977", "experiment": "Antibiotic spectrum in nutrient broth, MIC", "assay_type": "cell-based", "settings": "Klebsiella pneumoniae, 10^-4 dilution, BL-S1052 adjusted for 97.5% content of BL-S640", "excerpt": "as §1, §2, §3, §4, §5, §6"}, "[1]": {"tested_on": "S. aureus Meth-Res A15097", "experiment": "Antibiotic spectrum in nutrient broth, MIC", "assay_type": "cell-based", "settings": "Staphylococcus aureus; 10^-3 dilution; BL-S1052 adjusted for 97.5% content of BL-S640", "excerpt": "as §1, §2, §3, §4, §5, §6"}, "E. coli Juhl A15119": {"tested_on": "E. coli Juhl A15119", "experiment": "Antibiotic spectrum in nutrient broth, MIC", "assay_type": "cell-based", "settings": "Escherichia coli, JUHLA15119; 10^-4 dilution; BL-S1052 adjusted for 97.5% content of BL-S640", "excerpt": "as §1, §2, §3, §4, §5, §6"}, "[2]": {"experiment": "Mouse blood levels after IM administration", "assay_type": "in vivo", "settings": "IM 10 mg./kg.", "description": "Mouse Blood Levels after IM\nAdministration of 10 mg./kg. Body Weight\nBlood Levels (mcg./ml.)\n(§7) The compounds were prepared in 0.01% phosphate buffer. BL-S640 was used a\n(§8) standard for all compounds."}, "[3]": {"experiment": "Mouse blood levels after PO administration", "assay_type": "in vivo", "settings": "PO 100 mg./kg.", "description": "______________________________________\nMouse Blood Levels after PO\nAdministration of 100 mg./kg. Body Weight\nThe compounds were prepared in Tween-CMC. BL-S640 was used as standard fo"}, "[4]": {"experiment": "Paper chromatograms of rat urine for antibiotically active metabolites after IM administration", "assay_type": "in vivo", "settings": "rat urine 0-2 and 2-4 hours", "description": "Paper chromatograms were run on rat urine collected between 0 and 2 and between 2 and 4 hours, following IM administration of BL-S1052 and BL-S640, for the detection of antibiotically active metabolites using descending chromatography with system No. 9 (butyl acetate:n-butanol:glacial acetic acid:H2 O = 80:15:40:24)."}, "[5]": {"experiment": "Urinary recovery after IM administration to rats", "assay_type": "in vivo", "settings": "rat, urine, read-out: Urinary recovery, percentage of administered dose recovered; for dose excreted at 6 h: 0-6 hr", "description": "Urinary Recovery after IM\nAdministration of 50 and 10 mg./kg. to Rats\nas §7, §8"}, "S. aureus BX1633": {"tested_on": "S. aureus BX1633", "experiment": "Antibiotic spectrum in nutrient broth, MIC", "assay_type": "cell-based", "settings": "Staphylococcus aureus", "excerpt": "as §1, §2\n(§9) This adjustment was also mad\nas §5, §6"}, "Pr. morganii A15153": {"tested_on": "Pr. morganii A15153", "experiment": "Antibiotic spectrum in nutrient broth, MIC", "assay_type": "cell-based", "settings": "Morganella morganii, 10^-4 dilution, BL-S1052 adjusted for 97.5% content of BL-S640", "excerpt": "as §1, §2, §9, §5, §6"}, "Ent. cloacae A9659": {"tested_on": "Ent. cloacae A9659", "experiment": "Antibiotic spectrum in nutrient broth, MIC", "assay_type": "cell-based", "settings": "Enterobacter cloacae, 10^-4 dilution, BL-S1052 adjusted for 97.5% content of BL-S640", "excerpt": "as §1, §2, §9, §5, §6"}, "[6]": {"experiment": "Liquid chromatography, % free BL-S640 present (hydrolysis in solution)", "assay_type": "physicochemical", "settings": "1 mg./ml.", "description": "5. Liquid Chromatography (concentration = 1 mg./ml.)\nTime in Hours % Free BL-S640 Present"}, "Water solubility": {"experiment": "Water solubility", "assay_type": "physicochemical", "description": "The sodium and potassium salts of formula I may be dissolved in water to form relatively concentrated solutions of at least 250 mg./ml. of activity. Concentrations of 250 mg./ml. of activity (pH 5.7-7.2) of these salts have acceptable aqueous stabilities.\ng. Water solubility = Approximately 10 mg./ml. in water at 23° C.\n3. Solubility = greater than 400 mg./ml."}},
  "note": "Like-named read-outs stand apart in the source and are kept apart here.",
  "data": [
    {"smiles": "O=C(O)C1=C(CSc2c[nH]nn2)CSC2C(N3C(=O)C(c4ccc(O)cc4)NC3c3ccco3)C(=O)N12", "note": "(stereo not shown) [BL-S1052]", "values": [
      {"measurement": "MIC", "setting": "Pr. mirabilis A9900", "value": 0.5, "unit": "µg/mL"},
      {"measurement": "MIC", "setting": "Ent. cloacae A9657", "value": 0.5, "unit": "µg/mL"},
      {"measurement": "MIC", "setting": "Ser. marcescens A20019", "value": "> 125", "unit": "µg/mL"},
      {"measurement": "MIC", "setting": "E. coli A9675", "value": 2, "unit": "µg/mL"},
      {"measurement": "MIC", "setting": "S. aureus Smith A9537; SMITHA9537, 10^-4 dilution, nutrient broth", "value": 0.13, "unit": "µg/mL"},
      {"measurement": "MIC", "setting": "S. aureus Smith A9537; SMITHA9537, +50% serum, 10^-4 dilution", "value": 2, "unit": "µg/mL"},
      {"measurement": "MIC", "setting": "K. pneumoniae A15130", "value": 1, "unit": "µg/mL"},
      {"measurement": "MIC", "setting": "Ps. Aeruginosa A9843A", "value": "> 125", "unit": "µg/mL"},
      {"measurement": "MIC", "setting": "Sal. enteritidis A9531", "value": 0.13, "unit": "µg/mL"},
      {"measurement": "MIC", "setting": "Ent. cloacae A9656", "value": "> 125", "unit": "µg/mL"},
      {"measurement": "MIC", "setting": "K. pneumoniae A9977", "value": 0.5, "unit": "µg/mL"},
      {"measurement": "MIC", "setting": "[1]", "value": 4, "unit": "µg/mL"},
      {"measurement": "MIC", "setting": "E. coli Juhl A15119", "value": 1, "unit": "µg/mL"},
      {"measurement": "concentration at 0.25 h", "setting": "[2]; 0.25 hr", "value": 15100, "unit": "ng/mL"},
      {"measurement": "concentration at 0.5 h", "setting": "[2]; 0.5 hr", "value": 15100, "unit": "ng/mL"},
      {"measurement": "concentration at 1 h", "setting": "[2]; 1 hr", "value": 11500, "unit": "ng/mL"},
      {"measurement": "concentration at 1.5 h", "setting": "[2]; 1.5 hr", "value": 7800, "unit": "ng/mL"},
      {"measurement": "concentration at 0.5 h", "setting": "[3]; 0.5 hr", "value": 45200, "unit": "ng/mL"},
      {"measurement": "concentration at 1 h", "setting": "[3]; 1 hr", "value": 48100, "unit": "ng/mL"},
      {"measurement": "concentration at 2 h", "setting": "[3]; 2 hr", "value": 31900, "unit": "ng/mL"},
      {"measurement": "concentration at 3.5 h", "setting": "[3]; 3.5 hr", "value": 14400, "unit": "ng/mL"},
      {"measurement": "Hydrolysis of the derivative to parent compound BL-S640 and its presumed metabolite", "setting": "[4]", "value": "complete hydrolysis"},
      {"measurement": "Antibiotically active spots in urine", "setting": "[4]; paper chromatography system No. 9", "value": "Two spots identically located"},
      {"measurement": "dose excreted at 6 h", "setting": "[5]; 10 mg/kg, IM 10 mg./kg.", "value": 21.7, "unit": "%"},
      {"measurement": "dose excreted at 24 h", "setting": "[5]; 10 mg/kg, IM 10 mg./kg., 0-24 hr", "value": 24.1, "unit": "%"},
      {"measurement": "dose excreted at 24 h", "setting": "[5]; 10 mg/kg, IM 10 mg./kg., 6-24 hr", "value": 2.4, "unit": "%"},
      {"measurement": "dose excreted at 6 h", "setting": "[5]; 50 mg/kg, IM 50 mg./kg.", "value": 40.3, "unit": "%"},
      {"measurement": "dose excreted at 24 h", "setting": "[5]; 50 mg/kg, IM 50 mg./kg., 0-24 hr", "value": 42.4, "unit": "%"},
      {"measurement": "dose excreted at 24 h", "setting": "[5]; 50 mg/kg, IM 50 mg./kg., 6-24 hr", "value": 2.1, "unit": "%"},
      {"measurement": "MIC", "setting": "S. aureus BX1633; BX1633", "value": 0.25, "unit": "µg/mL"},
      {"measurement": "MIC", "setting": "S. aureus BX1633; BX1633, 10^-2 dilution, A9606, BL-S1052 adjusted for 97.5% content of BL-S640, read-out: MIC", "value": 2, "unit": "µg/mL"},
      {"measurement": "MIC", "setting": "Pr. morganii A15153", "value": 32, "unit": "µg/mL"},
      {"measurement": "MIC", "setting": "Ent. cloacae A9659", "value": 32, "unit": "µg/mL"},
      {"measurement": "% Free BL-S640 Present", "setting": "[6]; 0 hours", "value": 69.2, "unit": "%"},
      {"measurement": "% free BL-S640 present at 1 h", "setting": "[6]; 1 hour", "value": 74.2, "unit": "%"},
      {"measurement": "% free BL-S640 present at 2 h", "setting": "[6]; 2 hours", "value": 94.5, "unit": "%"},
      {"measurement": "solubility", "setting": "Water solubility", "value": "> 400", "unit": "mg/mL"}
    ]}
  ]
}
